Test results taken from the kinase profiling compilation of Christmann-Franck et al. (2016).
Several values for one entry are separate records, joined by “and”; a condition that tells them apart may be missing. Equal values may be shown once.

What was measured:
Experiment in all cases: radiometric filter-binding kinase assay, Kinase HotSpot
Details in all cases: compound 0.5 µM; ATP 10 µM
EPHA8 (human) = EPHA8 (human) (UniProt P29322)
PASK (human) = PASK (human) (UniProt Q96RG2)
TYRO3 (human) = TYRO3 (human) (UniProt Q06418)
CAMK2B (human) = CAMK2B (human) (UniProt Q13554)
[1] = biological target: JAK1 JH1 catalytic (human) (UniProt P23458)
STK38 (human) = STK38 (human) (UniProt Q15208)
RPS6KA1 KD1 KD2 (human) = RPS6KA1 KD1 KD2 (human) (UniProt Q15418)
Sequence of RPS6KA1 KD1 KD2 (human) (Q15418 whole entry, looked up): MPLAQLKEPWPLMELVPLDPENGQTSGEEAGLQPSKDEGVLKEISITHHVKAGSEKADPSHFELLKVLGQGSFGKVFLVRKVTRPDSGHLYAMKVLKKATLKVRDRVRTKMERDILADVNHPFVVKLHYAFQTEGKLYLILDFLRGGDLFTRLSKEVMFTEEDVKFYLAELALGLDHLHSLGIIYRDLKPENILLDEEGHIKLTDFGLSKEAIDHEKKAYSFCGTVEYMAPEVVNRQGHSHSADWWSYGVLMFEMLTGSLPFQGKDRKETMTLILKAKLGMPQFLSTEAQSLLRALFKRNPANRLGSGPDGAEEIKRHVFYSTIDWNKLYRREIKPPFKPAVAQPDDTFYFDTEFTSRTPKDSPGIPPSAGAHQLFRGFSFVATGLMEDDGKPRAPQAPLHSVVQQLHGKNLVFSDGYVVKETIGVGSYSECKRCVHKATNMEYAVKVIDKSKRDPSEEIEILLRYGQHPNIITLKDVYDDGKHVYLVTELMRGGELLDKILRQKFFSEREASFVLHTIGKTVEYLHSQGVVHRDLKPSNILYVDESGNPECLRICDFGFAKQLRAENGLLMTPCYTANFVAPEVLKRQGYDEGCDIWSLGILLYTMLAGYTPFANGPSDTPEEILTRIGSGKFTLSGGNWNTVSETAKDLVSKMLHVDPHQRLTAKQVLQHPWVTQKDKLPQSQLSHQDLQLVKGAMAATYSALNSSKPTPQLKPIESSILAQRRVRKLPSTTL

CDK3 CCNE1 (human) = CDK3 CCNE1 (human) (UniProt Q00526+P24864)
ROS1 (human) = ROS1 (human) (UniProt P08922)
MARK4 (human) = MARK4 (human) (UniProt Q96L34)
PKN1 (human) = PKN1 (human) (UniProt Q16512)
MAPK3 (human) = MAPK3 (human) (UniProt P27361)
Sequence of MAPK3 (human) (P27361 whole entry, looked up): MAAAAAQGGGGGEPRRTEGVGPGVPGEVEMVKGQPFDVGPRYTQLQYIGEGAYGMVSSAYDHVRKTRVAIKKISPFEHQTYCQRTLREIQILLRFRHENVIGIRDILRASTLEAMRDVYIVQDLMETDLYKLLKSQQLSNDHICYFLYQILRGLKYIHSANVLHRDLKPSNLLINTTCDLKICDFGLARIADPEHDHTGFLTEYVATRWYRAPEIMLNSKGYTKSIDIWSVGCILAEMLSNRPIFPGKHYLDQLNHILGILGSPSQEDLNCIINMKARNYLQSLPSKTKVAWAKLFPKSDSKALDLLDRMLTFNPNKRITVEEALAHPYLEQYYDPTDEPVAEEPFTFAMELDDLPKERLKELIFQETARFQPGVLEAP

DYRK2 (human) = DYRK2 (human) (UniProt Q92630)
EPHA6 (human) = EPHA6 (human) (UniProt Q9UF33)
BRAF (human) = BRAF (human) (UniProt P15056)
PRKCE (human) = PRKCE (human) (UniProt Q02156)
PRKCZ (human) = PRKCZ (human) (UniProt Q05513)
MYO3B (human) = MYO3B (human) (UniProt Q8WXR4)
Sequence of MYO3B (human) (Q8WXR4 whole entry, looked up): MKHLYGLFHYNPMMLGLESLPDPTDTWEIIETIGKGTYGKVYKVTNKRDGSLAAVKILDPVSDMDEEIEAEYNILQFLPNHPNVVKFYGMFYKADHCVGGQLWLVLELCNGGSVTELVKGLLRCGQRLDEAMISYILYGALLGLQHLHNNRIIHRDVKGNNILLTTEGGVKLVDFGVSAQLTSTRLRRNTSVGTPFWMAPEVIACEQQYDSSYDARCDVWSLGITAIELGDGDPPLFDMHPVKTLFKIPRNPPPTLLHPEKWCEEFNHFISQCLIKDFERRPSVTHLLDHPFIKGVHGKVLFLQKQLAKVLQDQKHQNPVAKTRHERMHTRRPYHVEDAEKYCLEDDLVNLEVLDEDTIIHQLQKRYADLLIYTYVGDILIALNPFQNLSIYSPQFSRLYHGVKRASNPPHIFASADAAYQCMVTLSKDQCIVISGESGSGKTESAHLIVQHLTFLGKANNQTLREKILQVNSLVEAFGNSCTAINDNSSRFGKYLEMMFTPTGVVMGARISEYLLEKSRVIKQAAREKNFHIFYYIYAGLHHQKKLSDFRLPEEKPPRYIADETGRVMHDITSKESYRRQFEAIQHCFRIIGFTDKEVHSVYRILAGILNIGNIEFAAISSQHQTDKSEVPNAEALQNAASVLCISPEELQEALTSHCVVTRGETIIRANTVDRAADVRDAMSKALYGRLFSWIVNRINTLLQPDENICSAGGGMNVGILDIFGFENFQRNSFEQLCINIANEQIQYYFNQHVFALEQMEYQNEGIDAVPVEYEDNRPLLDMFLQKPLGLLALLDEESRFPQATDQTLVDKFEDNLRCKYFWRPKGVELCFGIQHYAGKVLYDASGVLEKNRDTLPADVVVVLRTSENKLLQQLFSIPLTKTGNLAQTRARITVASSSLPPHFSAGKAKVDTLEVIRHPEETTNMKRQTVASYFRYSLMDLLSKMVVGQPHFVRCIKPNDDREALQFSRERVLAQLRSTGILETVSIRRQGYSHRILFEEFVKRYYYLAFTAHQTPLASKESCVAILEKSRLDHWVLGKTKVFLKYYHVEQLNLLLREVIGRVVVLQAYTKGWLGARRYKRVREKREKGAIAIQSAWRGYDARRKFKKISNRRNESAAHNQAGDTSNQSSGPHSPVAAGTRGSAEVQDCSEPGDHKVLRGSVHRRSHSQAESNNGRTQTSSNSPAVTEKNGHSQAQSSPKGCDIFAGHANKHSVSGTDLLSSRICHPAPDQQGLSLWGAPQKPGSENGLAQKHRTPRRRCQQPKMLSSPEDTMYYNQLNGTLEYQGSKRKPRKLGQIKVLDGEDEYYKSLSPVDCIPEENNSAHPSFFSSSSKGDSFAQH

ITK (human) = ITK (human) (UniProt Q08881)
SRC (human) = SRC (human) (UniProt P12931)
[2] = tested on: ARAF (human), P10398 [Y301D/Y302D]
ULK3 (human) = ULK3 (human) (UniProt Q6PHR2)
TAOK1 (human) = TAOK1 (human) (UniProt Q7L7X3)
INSRR (human) = INSRR (human) (UniProt P14616)
CLK4 (human) = CLK4 (human) (UniProt Q9HAZ1)
CSNK1A1 (human) = CSNK1A1 (human) (UniProt P48729)
CSNK1G3 (human) = CSNK1G3 (human) (UniProt Q9Y6M4)
Sequence of CSNK1G3 (human) (Q9Y6M4 whole entry, looked up): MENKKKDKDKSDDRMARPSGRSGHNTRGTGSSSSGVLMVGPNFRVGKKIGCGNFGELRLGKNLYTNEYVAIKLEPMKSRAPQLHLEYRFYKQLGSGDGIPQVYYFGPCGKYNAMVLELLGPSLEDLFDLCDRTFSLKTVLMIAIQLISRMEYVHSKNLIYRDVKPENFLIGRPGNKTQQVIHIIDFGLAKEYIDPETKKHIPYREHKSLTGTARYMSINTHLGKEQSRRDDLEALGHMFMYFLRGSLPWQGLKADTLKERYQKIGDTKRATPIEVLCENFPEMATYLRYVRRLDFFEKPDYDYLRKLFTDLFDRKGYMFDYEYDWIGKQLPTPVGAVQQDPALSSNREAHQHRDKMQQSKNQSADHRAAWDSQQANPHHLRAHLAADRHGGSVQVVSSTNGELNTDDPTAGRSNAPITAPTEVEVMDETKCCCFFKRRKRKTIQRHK

PDGFRB (human) = PDGFRB (human) (UniProt P09619)
PRKCG (human) = PRKCG (human) (UniProt P05129)
TLK2 (human) = TLK2 (human) (UniProt Q86UE8)
PRKACG (human) = PRKACG (human) (UniProt P22612)
MAPK8 (human) = MAPK8 (human) (UniProt P45983)
Sequence of MAPK8 (human) (P45983 whole entry, looked up): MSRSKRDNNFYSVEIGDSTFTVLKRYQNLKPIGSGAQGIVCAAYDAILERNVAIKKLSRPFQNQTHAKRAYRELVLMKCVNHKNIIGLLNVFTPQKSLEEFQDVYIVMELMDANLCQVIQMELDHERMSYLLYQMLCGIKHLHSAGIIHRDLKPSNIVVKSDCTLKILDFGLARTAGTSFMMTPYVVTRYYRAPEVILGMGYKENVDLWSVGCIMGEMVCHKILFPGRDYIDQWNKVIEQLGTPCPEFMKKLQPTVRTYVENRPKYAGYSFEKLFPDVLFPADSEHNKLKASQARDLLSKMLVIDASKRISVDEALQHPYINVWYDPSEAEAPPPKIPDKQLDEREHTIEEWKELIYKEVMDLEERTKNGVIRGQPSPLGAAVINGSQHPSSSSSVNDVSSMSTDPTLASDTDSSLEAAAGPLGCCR

PRKG1 (human) = PRKG1 (human) (UniProt Q13976)
Sequence of PRKG1 (human) (Q13976 whole entry, looked up): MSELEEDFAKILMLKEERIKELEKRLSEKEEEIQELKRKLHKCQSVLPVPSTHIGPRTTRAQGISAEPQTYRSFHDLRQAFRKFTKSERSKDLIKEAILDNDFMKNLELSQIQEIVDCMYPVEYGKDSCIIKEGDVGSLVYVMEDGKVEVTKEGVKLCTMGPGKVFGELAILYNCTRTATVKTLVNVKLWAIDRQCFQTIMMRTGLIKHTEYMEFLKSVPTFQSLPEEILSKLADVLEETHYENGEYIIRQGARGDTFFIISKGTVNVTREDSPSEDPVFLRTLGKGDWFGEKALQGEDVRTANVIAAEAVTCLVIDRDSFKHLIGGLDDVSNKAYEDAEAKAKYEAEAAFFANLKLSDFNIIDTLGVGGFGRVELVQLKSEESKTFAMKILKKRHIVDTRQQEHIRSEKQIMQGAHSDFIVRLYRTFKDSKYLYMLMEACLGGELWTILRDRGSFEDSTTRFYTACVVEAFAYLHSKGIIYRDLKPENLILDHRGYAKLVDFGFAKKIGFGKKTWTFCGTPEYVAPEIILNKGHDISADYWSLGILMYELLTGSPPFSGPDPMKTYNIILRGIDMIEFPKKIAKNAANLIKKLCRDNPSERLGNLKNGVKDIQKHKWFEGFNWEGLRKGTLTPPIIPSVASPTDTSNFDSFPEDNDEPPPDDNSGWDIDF

NUAK2 (human) = NUAK2 (human) (UniProt Q9H093)
CSNK2A2 (human) = CSNK2A2 (human) (UniProt P19784)
RPS6KA2 KD1 KD2 (human) = RPS6KA2 KD1 KD2 (human) (UniProt Q15349)
DSTYK (human) = DSTYK (human) (UniProt Q6XUX3)
CHEK1 (human) = CHEK1 (human) (UniProt O14757)
STK25 (human) = STK25 (human) (UniProt O00506)
ABL1 (human) = ABL1 (human) (UniProt P00519)

Sequence of EPHA8 (human) (P29322 whole entry, looked up): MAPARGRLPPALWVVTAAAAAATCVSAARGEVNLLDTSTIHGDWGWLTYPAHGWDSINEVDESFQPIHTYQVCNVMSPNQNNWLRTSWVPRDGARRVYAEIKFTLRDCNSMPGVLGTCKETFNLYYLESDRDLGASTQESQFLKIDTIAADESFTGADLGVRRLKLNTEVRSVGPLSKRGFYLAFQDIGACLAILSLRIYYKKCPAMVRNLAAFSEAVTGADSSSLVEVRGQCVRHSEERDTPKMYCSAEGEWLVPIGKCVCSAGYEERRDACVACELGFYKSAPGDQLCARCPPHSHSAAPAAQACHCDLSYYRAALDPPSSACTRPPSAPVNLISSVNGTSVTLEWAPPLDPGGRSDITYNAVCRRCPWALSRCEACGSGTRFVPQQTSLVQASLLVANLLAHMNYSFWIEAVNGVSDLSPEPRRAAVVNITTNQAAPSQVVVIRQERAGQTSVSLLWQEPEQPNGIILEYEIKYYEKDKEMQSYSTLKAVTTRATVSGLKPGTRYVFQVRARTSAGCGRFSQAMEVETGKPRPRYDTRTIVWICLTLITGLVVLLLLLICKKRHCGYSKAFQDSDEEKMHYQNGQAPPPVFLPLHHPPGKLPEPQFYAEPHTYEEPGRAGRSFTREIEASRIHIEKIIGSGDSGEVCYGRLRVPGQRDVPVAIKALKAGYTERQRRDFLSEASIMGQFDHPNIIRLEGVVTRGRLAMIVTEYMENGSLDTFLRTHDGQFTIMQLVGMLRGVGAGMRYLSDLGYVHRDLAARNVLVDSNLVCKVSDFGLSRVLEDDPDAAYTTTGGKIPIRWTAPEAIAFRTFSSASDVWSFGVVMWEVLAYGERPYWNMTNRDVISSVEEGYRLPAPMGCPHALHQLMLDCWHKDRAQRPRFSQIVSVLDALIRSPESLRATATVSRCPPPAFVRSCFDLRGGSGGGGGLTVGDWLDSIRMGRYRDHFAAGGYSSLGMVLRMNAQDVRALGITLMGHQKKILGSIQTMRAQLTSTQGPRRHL

| SMILES | residual activity (EPHA8 (human)) [%] | residual activity (PASK (human)) [%] | residual activity (TYRO3 (human)) [%] | residual activity (CAMK2B (human)) [%] | residual activity [1] [%] | residual activity (STK38 (human)) [%] | residual activity (RPS6KA1 KD1 KD2 (human)) [%] | residual activity (CDK3 CCNE1 (human)) [%] | residual activity (ROS1 (human)) [%] | residual activity (MARK4 (human)) [%] | residual activity (PKN1 (human)) [%] | residual activity (MAPK3 (human)) [%] | residual activity (DYRK2 (human)) [%] | residual activity (EPHA6 (human)) [%] | residual activity (BRAF (human)) [%] | residual activity (PRKCE (human)) [%] | residual activity (PRKCZ (human)) [%] | residual activity (MYO3B (human)) [%] | residual activity (ITK (human)) [%] | residual activity (SRC (human)) [%] | other results |
| --- | --- | --- | --- | --- | --- | --- | --- | --- | --- | --- | --- | --- | --- | --- | --- | --- | --- | --- | --- | --- | --- |
| Oc1ccc(-c2nc(-c3ccc(F)cc3)c(-c3ccncc3)[nH]2)cc1 | 93.6 | 79.3 | 97.5 | 96.4 | 102 | 99.8 | 98.1 | 96.7 | 89.8 | 100 | 78.9 | 101 | 99.3 | 57.3 | 60.5 | 96 | 109 | 101 | 90.9 | 85.9 | residual activity [2]: 31.1%; residual activity (ULK3 (human)): 85.5%; residual activity (TAOK1 (human)): 98.5%; residual activity (INSRR (human)): 98%; residual activity (CLK4 (human)): 106%; residual activity (CSNK1A1 (human)): 62.3%; residual activity (CSNK1G3 (human)): 102%; residual activity (PDGFRB (human)): 104%; residual activity (PRKCG (human)): 87.9%; residual activity (TLK2 (human)): 97.4%; residual activity (PRKACG (human)): 78.4%; residual activity (MAPK8 (human)): 98%; residual activity (PRKG1 (human)): 87% and 90.4%; residual activity (NUAK2 (human)): 128%; residual activity (CSNK2A2 (human)): 95.9%; residual activity (RPS6KA2 KD1 KD2 (human)): 101%; residual activity (DSTYK (human)): 100%; residual activity (CHEK1 (human)): 98.9%; residual activity (STK25 (human)): 115% |
| Clc1ccc(Nc2nnc(Cc3ccncc3)c3ccccc23)cc1 | 100 | 101 | 98.2 | 109 | 107 | 100 | 113 | 92.7 | 94.7 | 104 | 95.9 | 94.7 | 103 | 101 | 92.2 | 100 | 69.5 | 102 | 103 | 104 | residual activity [2]: 97.6%; residual activity (ULK3 (human)): 101%; residual activity (TAOK1 (human)): 98.7%; residual activity (INSRR (human)): 93.5%; residual activity (CLK4 (human)): 108%; residual activity (CSNK1A1 (human)): 95%; residual activity (CSNK1G3 (human)): 100%; residual activity (PRKCG (human)): 93.3%; residual activity (TLK2 (human)): 102%; residual activity (ABL1 (human)): 96.5%; residual activity (PRKACG (human)): 116%; residual activity (MAPK8 (human)): 98.2%; residual activity (PRKG1 (human)): 94.1% and 97.2%; residual activity (NUAK2 (human)): 105%; residual activity (CSNK2A2 (human)): 106%; residual activity (RPS6KA2 KD1 KD2 (human)): 97.5%; residual activity (DSTYK (human)): 96.5%; residual activity (CHEK1 (human)): 96.5%; residual activity (STK25 (human)): 94% |
